{"source": "patent US8076101B2", "about": "“Method of detecting the cystic fibrosis transmembrane conductance regulator (CFTR) at cell exterior” (priority 2003, dated 2011)", "assay_type_in_all_cases": "cell-based", "key": {"Extope-ΔF508 CFTR": {"system": "Extope-ΔF508 CFTR", "test": "Immunofluorescence microscopy of externally labeled Extope-ΔF508 CFTR after re-incubation with protease inhibitors", "settings": "re-incubated at 37° C. for 7 hours", "description": "FIG. 10B. […] Cell surface Extope-CFTR or Extope-ΔF508 CFTR were labeled with 16B12 as described in FIG. 2A. Cells were re-incubated at 37° C. for 7 hours with either lysosomal inhibitors pepstatin-A and leupeptin (Pep+Leu, each 50 μg/ml) and E64 (3.5 μg/ml) or proteasomal inhibitors lactacystin (50 μM) and MG132 (50 μM) or without drug (control) and stained for immunofluorescence microscopy. Nuclei were stained with propidium iodide.\nCells were treated with lysosomal inhibitors pepstatin-A and leupeptin as described in FIG. 5B. Extope-ΔF508 CFTR was labeled with 16B12 at the cell surface and detected 7 hours later using goat anti-mouse IgG Alexa Fluor 488 conjugate. Lysosomes were labeled with Lysotracker Red (Molecular Probes)."}, "[1]": {"system": "ΔF508 CFTR with modified EL2 (XT-ΔF508)", "test": "Quantitative luminescence detection of XT-ΔF508 CFTR at surface of cells in 96 well microtiter plates", "description": "FIG. 6. Quantitative detection of CFTR with EL2 epitope (XT-CFTR) at surface of cells grown in 96 well microtiter plates. Cells were washed, fixed and exposed to an antibody recognizing the external epitope, washed again and incubated with a horseradish peroxidase coupled second antibody and then with a peroxidase substrate that becomes luminescent after peroxidation. Luminescent signals in each well were quantitated in either a Packard Microplate Luminescence Counter or a Perkin Elmer VICTOR^2 Multilabel Counter. […] The corresponding quantitative signals are shown below.\nTo provide a more facile and quantifiable means of detecting EL2 modified CFTR on the cell surface, cells were plated on 96-well microtiter plates. The amount of surface epitope was measured either by luminometry or time resolved fluorescence. After incubation with a primary unlabeled mouse antibody to the epitope (HA11, Babco) and washing, a secondary horseradish peroxidase coupled antibody recognizing mouse IgG was added followed by peroxidase substrate that luminesces when peroxidized. Luminescence was measured in each well in one of two different luminescence plate readers. A strong signal is obtained in the replicate row of wild-type XT-CFTR expressing cells and signals of strengthening intensity are obtained in rows of XT-ΔF508 cells grown at 28° C. with increasing concentrations of butyrate."}, "XT-ΔF508 CFTR": {"system": "XT-ΔF508 CFTR", "test": "cyclic AMP stimulated 36Cl efflux (CFTR chloride channel activity)", "settings": "grown at 28° C. with 2 mM sodium butyrate for 48 h; forskolin (10 μM) and IBMX (1 mM)", "description": "FIG. 5. CFTR chloride channel activity as monitored by ^36Cl efflux from cells expressing wild-type CFTR (◯), ΔF508 CFTR without (♦) or with (▴) 2 mM sodium butyrate or no CFTR (□). Cells were preloaded with ^36Cl and then exposed to forskolin (10 μM) and IBMX (1 mM) at time 0. The amounts of ^36Cl radioactivity released from the cells in subsequent 1 min intervals was monitored by scintillation counting.\nTo determine the functional capability of the EL2 modified variants, rates of cyclic AMP stimulated ^36Cl efflux from cells expressing them were measured. The rate of efflux from cells expressing wild-type XT-CFTR was similar to that with unmodified wild-type (FIG. 5)."}, "[2]": {"system": "Extope-CFTR and ΔF508 CFTR", "test": "Chemiluminescence assay of cell surface Extope-CFTR and ΔF508 CFTR retained after reincubation", "settings": "lactacystin 25 μM, reincubated for indicated times, 8 replicates", "description": "FIG. 10D. […] Extope-CFTR and ΔF508 CFTR were labeled on intact pre-cooled cells on ice for 30 minutes with 16B12 mAb and cells were reincubated in the presence or absence of lactacystin (25 μM) for indicated times. Cell surface Extope-CFTR was detected in a chemiluminescence assay at indicated times using sheep anti-mouse peroxidase conjugate and chemiluminescence. Each experiment was performed with 8 replicates and standard deviations are indicated."}}, "note": "“Also recorded” adds a separate entry of the source. Residues, ends and D or L forms follow the SMILES beside them. *: point of attachment. Cbz = O=C(OCc1ccccc1)*", "data": [{"smiles": "CC(C)C[C@@H](C=O)NC(=O)[C@H](CC(C)C)NC(=O)[C@H](CC(C)C)NC(=O)OCc1ccccc1", "note": "[MG132] (Cbz-Leu-Leu-Leu-aldehyde)", "values": [{"measurement": "endocytic turn over of ΔF508-CFTR", "setting": "Extope-ΔF508 CFTR; 50 μM", "value": "inhibit endocytic turn over"}]}, {"smiles": "CCCC(=O)[O-].[Na+]", "note": "[sodium butyrate]", "values": [{"measurement": "amount of ΔF508 CFTR with modified EL2 detected at the cell surface (luminescent signal)", "setting": "[1]; cells grown at 28° C. for 24 h, increasing concentrations of sodium butyrate", "value": "Increasing amounts"}, {"measurement": "XT-ΔF508 surface luminescence signal relative to wild-type XT-CFTR", "setting": "[1]; cells grown at 28° C., maximal butyrate dose", "value": "more than half that of the wild-type"}, {"measurement": "36Cl efflux from ΔF508 CFTR expressing cells relative to wild-type", "setting": "XT-ΔF508 CFTR", "value": "more closely approaches those of wild-type; also recorded: nearly as great as from cells expressing wild-type CFTR"}]}, {"smiles": "CC(C)C[C@H](NC(=O)[C@H]1O[C@@H]1C(=O)O)C(=O)NCCCCN=C(N)N", "note": "[E64]", "values": [{"measurement": "endocytic turn over of ΔF508-CFTR", "setting": "Extope-ΔF508 CFTR; 3.5 μg/ml", "value": "inhibit endocytic turn over"}]}, {"smiles": "CC(=O)N[C@@H](CSC(=O)[C@]1([C@@H](O)C(C)C)NC(=O)[C@H](C)[C@@H]1O)C(=O)O", "note": "[lactacystin]", "values": [{"measurement": "endocytic turn over of ΔF508-CFTR", "setting": "Extope-ΔF508 CFTR; 50 μM", "value": "inhibit endocytic turn over"}, {"measurement": "amount of CFTR retained at the cellular surface", "setting": "[2]", "value": "increases the amount of CFTR retained at the cellular surface"}]}]}
